Assay results reported in US5162328A, “N-[3-[2-(1H-imidazol-1-yl)ethoxy]phenyl]-4-(2-thienyl)-2-pyrimidinamine and pharmacologically acceptable salts” (American Cyanamid Company, priority 1991, dated 1992).
Read-outs that look alike come from different tables or passages of the source.

Experiment: Pharmacokinetics in dogs (plasma concentration by HPLC)
Type: in vivo, dog (beagle)
Settings: for AUC(0-inf): read-out: AUCO- (to infinite time); for concentration at 0.5 h / concentration at 1 h / concentration at 2 h / concentration at 4 h / concentration at 7 h / Cmax / AUC(0-t) at 4 h: one dog (Dog 1); for concentration at 0.5 h / concentration at 1 h / concentration at 2 h / concentration at 4 h / concentration at 7 h: heading: Plasma concentration; for AUC(0-t) at 4 h: read-out: AUC0-4
Experimental: Since dogs are used in toxicology studies of antiasthma compounds, this species is chosen for pharmacokinetic evaluations. Use of the dog permits the pharmacokinetic comparison of 2 or more compounds in the same test animal, an evaluation which could not be conveniently performed in a smaller species. For each test compound, normal dogs are given a dose of 2.0 mg/kg/day for 5 consecutive days. There is a washout period of 1 month between the study of each of the test compounds in the same four dogs. Each test compound is administered as a solution of 5 mg/ml in either 0.05 or 0.1N HCl which is dispensed into a gelatin capsule immediately prior to dosage.
Heparinized blood samples are obtained from each animal on the first, third and fifth day of dosage at 0.5, 1.0, 2.0, 4.0, 7.0, 12.0 and 24.0 hours after the dose. The samples are centrifuged immediately to obtain plasma which is frozen until analyzed.
Analysis of plasma is performed using High Performance Liquid Chromatography (HPLC). The analytical procedure is essentially identical for each compound. The internal standard used for N-[3-[2-(1H-imidazol-1-yl)ethoxy]phenyl]-4-(2-thienyl)2-pyrimidinamine is 2-chloro-11-(4-methyl-1-piperazinyl)dibenz[b,f][1,4]oxazepine succinate, while for 2-methyl-N^4 -[4-(4-pyridinyl)-2-pyrimidinyl]-1,4-benzenediamine dihydrochloride and N-[4-[2-(diethylamino)ethoxy]phenyl]-4-(4-pyridinyl)-2-pyrimidnamine dihydrochloride the internal standard is 7-ethoxy-coumarin. In a typical procedure, a 0.4 ml volume of acetonitrile containing internal standard is added a 0.2 ml volume of serum. The sample is mixed by vortexing and centrifuged. The clear protein free supernatent fluid is decanted into a clean tube and evaporated to dryness. The dry residue is dissolved in 0.2 ml of HPLC mobile phase and 50 ul of this solution injected. Peaks corresponding to the test compound being measured and to the internal standard compound are quantitated by their absorption of ultraviolet light at 280 nm. Each set of analytical samples is accompanied by the analysis of a group of standard dog plasma samples prepared to contain amounts of the compound being measured which encompasses the concentration range of the samples.
Four normal beagle dogs weighing between 9.2 and 10.2 Kg are used in the study.

[1] = dog, plasma, po, 2 mg/kg/day, Dog 1, day 1, 2 mg/kg/day PO
[2] = dog, plasma, po, 2 mg/kg/day, Dog 1, day 3, 2 mg/kg/day PO
[3] = dog, plasma, po, 2 mg/kg/day, Dog 1, day 5, 2 mg/kg/day PO
[4] = dog, plasma, po, 2 mg/kg/day, day 1, 2 mg/kg/day PO
[5] = dog, plasma, po, 2 mg/kg/day, day 3, 2 mg/kg/day PO
[6] = dog, plasma, po, 2 mg/kg/day, day 5, 2 mg/kg/day PO

Tmax [1]: 1 h
half-life [1]: 1.77 h
AUC(0-inf) [1]: 374 ng·h/mL
Tmax [2]: 1 h
half-life [2]: 1.25 h
AUC(0-inf) [2]: 423 ng·h/mL
Tmax [3]: 1 h
half-life [3]: 2.16 h
AUC(0-inf) [3]: 392 ng·h/mL
concentration at 0.5 h (dog, plasma, po, 2 mg/kg/day, day 1, 0.5 h, 2 mg/kg/day PO): 30 ng/mL
concentration at 1 h (dog, plasma, po, 2 mg/kg/day, day 1, 1.0 h, 2 mg/kg/day PO): 125 ng/mL
concentration at 2 h (dog, plasma, po, 2 mg/kg/day, day 1, 2.0 h, 2 mg/kg/day PO): 102 ng/mL
concentration at 4 h (dog, plasma, po, 2 mg/kg/day, day 1, 4.0 h, 2 mg/kg/day PO): 40 ng/mL
concentration at 7 h (dog, plasma, po, 2 mg/kg/day, day 1, 7.0 h, 2 mg/kg/day PO): < 30 ng/mL
Cmax [4]: 125 ng/mL
AUC(0-t) at 4 h [4]: 302 ng·h/mL
concentration at 0.5 h (dog, plasma, po, 2 mg/kg/day, day 3, 0.5 h, 2 mg/kg/day PO): 124 ng/mL
concentration at 1 h (dog, plasma, po, 2 mg/kg/day, day 3, 1.0 h, 2 mg/kg/day PO): 192 ng/mL
concentration at 2 h (dog, plasma, po, 2 mg/kg/day, day 3, 2.0 h, 2 mg/kg/day PO): 81 ng/mL
concentration at 4 h (dog, plasma, po, 2 mg/kg/day, day 3, 4.0 h, 2 mg/kg/day PO): 34 ng/mL
concentration at 7 h (dog, plasma, po, 2 mg/kg/day, day 3, 7.0 h, 2 mg/kg/day PO): < 30 ng/mL
Cmax [5]: 192 ng/mL
AUC(0-t) at 4 h [5]: 362 ng·h/mL
concentration at 0.5 h (dog, plasma, po, 2 mg/kg/day, day 5, 0.5 h, 2 mg/kg/day PO): < 30 ng/mL
concentration at 1 h (dog, plasma, po, 2 mg/kg/day, day 5, 1.0 h, 2 mg/kg/day PO): 153 ng/mL
concentration at 2 h (dog, plasma, po, 2 mg/kg/day, day 5, 2.0 h, 2 mg/kg/day PO): 82 ng/mL
concentration at 4 h (dog, plasma, po, 2 mg/kg/day, day 5, 4.0 h, 2 mg/kg/day PO): 55 ng/mL
concentration at 7 h (dog, plasma, po, 2 mg/kg/day, day 5, 7.0 h, 2 mg/kg/day PO): < 30 ng/mL
Cmax [6]: 153 ng/mL
AUC(0-t) at 4 h [6]: 293 ng·h/mL
k el (dog, plasma, po, 2 mg/kg/day, derived from mean of half-life values, read-out: elimination constant (converted)): 0.000155 s⁻¹
SMILES: CCN(CC)CCOc1ccc(Nc2nccc(-c3ccncc3)n2)cc1.Cl.Cl [Compound 3, N-[4-[2-(diethylamino)ethoxy]phenyl]-4-(4-pyridinyl)-2-pyrimidinamine dihydrochloride, reference compound]
measurable concentrations in plasma (in words) (four dogs, 2 mg/kg/day PO): only one dog provided measurable concentrations of compound in the plasma
